# Source: patent US20010051591A1, “Safening crops from the phytotoxic effects of herbicidally active N-phosphonomethyl-glycines” (priority 2000, published 2001)
# Assays:
# Format in all cases: in vivo
# [1] = tested on: soybean Variety A3234; test: Example 1: phytotoxic injury to soybean, tank mix sprayed on 12-day-old plants; conditions: clomazone 0 kg/ha, 21 days after treatment
# Method: (§1) The aforementioned solutions were sprayed in admixture as a tank mix onto flats of 12-day-old soybean plants arranged in a randomized, block design. There were four replicates for each rate of application. The soybean plants were evaluated at 21 days after treatment for percent phytotoxic injury by comparison to tests conducted on untreated plants and plants treated with Herbicidal Compound only. The rate of application clomazone for the Safening Composition A, and the rate of application of glyphosate for the Herbicidal Compound are expressed below in kg/ha.
# [2] = tested on: soybean variety Asgrow 2704; test: as above; conditions: clomazone 0 kg/ha, 21 days after treatment
# Method: as §1
# [3] = tested on: Tomato; test: Example 2: phytotoxic injury to crops, tank mix spray; conditions: clomazone 0 kg/ha, 14 days after treatment
# Method: (§2) Glyphosate, tested as ROUNDUP® Ultra Herbicide (termed in Examples 1-3 as “Herbicidal Compound”), and COMMAND® 3 ME Herbicide comprised of at least one plant-safening, inorganic, water-soluble salt (calcium chloride), termed in Examples 1 and 2 as “Safening Composition A”, were tested as water solutions on two soybean varieties (Asgrow 2704 and Asgrow […]). The aforementioned solutions were sprayed in admixture as a tank mix onto flats of 12-day-old soybean plants arranged in a randomized, block design. There were four replicates for each rate of application. The soybean plants were evaluated at 21 days after treatment for percent phytotoxic injury by comparison to tests conducted on untreated plants and plants treated with Herbicidal Compound only. The rate of application clomazone for the Safening Composition A, and the rate of application of glyphosate for the Herbicidal Compound are expressed below in kg/ha.
# (§3) As set forth in Example 2, the Herbicidal Compound and Safening Composition A were tested in the same manner as described in Example 1. The aforementioned Herbicidal Compound and Safening Composition A were sprayed as a tank mix onto 10-14 day old crop and weed species. The tests were evaluated at 14 days after treatment for percent injury by comparison to tests conducted on untreated plants and weeds, and plants and weeds treated with Herbicidal Compound only.
# [4] = tested on: Corn; test: as above; conditions: glyphosate 0.8 kg/ha, clomazone 0 kg/ha; 14 days after treatment
# Method: as §2, §3
# [5] = tested on: Sorghum; test: as above; conditions: clomazone 0 kg/ha, 14 days after treatment
# Method: as §2, §3
# [6] = tested on: Rice; test: as above; conditions: glyphosate 0.4 kg/ha, clomazone 0 kg/ha; 14 days after treatment
# Method: as §2, §3
# [7] = tested on: Rape; test: as above; conditions: glyphosate 0.8 kg/ha, clomazone 0 kg/ha; 14 days after treatment
# Method: as §2, §3
# [8] = tested on: Pinto Bean; test: as above; conditions: glyphosate 0.4 kg/ha, clomazone 0 kg/ha; 14 days after treatment
# Method: as §2, §3
# [9] = tested on: Cucumber; test: as above; conditions: glyphosate 0.4 kg/ha, clomazone 0 kg/ha; 14 days after treatment
# Method: as §2, §3
# [10] = tested on: two soybean varieties; test: Example 1: average phytotoxic injury to the two soybean varieties; conditions: without Safening Composition A
# Method: as §2
# For example, at the 0.2, 0.4, and 0.8 kg/ha rate of application of Herbicidal Compound, the average injury to the two soybean varieties is about 18%, 46%, and 70%, respectively.
smiles,measurement,setting,value
"O=C(O)CNCP(=O)(O)O [Herbicidal Compound, Glyphosate]",Percent Phytotoxic Injury To Soybean Variety A3234,[1]; glyphosate 0.2 kg/ha,22%
same,Percent Phytotoxic Injury To Soybean Variety A3234,[1]; glyphosate 0.4 kg/ha,54%
same,Percent Phytotoxic Injury To Soybean Variety A3234,[1]; glyphosate 0.8 kg/ha,81%
same,Percent Phytotoxic Injury To Soybean Variety A2704,[2]; glyphosate 0.2 kg/ha,14%
same,Percent Phytotoxic Injury To Soybean Variety A2704,[2]; glyphosate 0.4 kg/ha,38%
same,Percent Phytotoxic Injury To Soybean Variety A2704,[2]; glyphosate 0.8 kg/ha,60%
same,Percent Phytotoxic Injury Tomato,[3]; glyphosate 0.2 kg/ha,95%
same,Percent Phytotoxic Injury Tomato,[3]; glyphosate 0.4 kg/ha,100%
same,Percent Phytotoxic Injury Corn,[4],90%
same,Percent Phytotoxic Injury Sorghum,[5]; glyphosate 0.4 kg/ha,76%
same,Percent Phytotoxic Injury Sorghum,[5]; glyphosate 0.8 kg/ha,100%
same,Percent Phytotoxic Injury Rice,[6],65%
same,Percent Phytotoxic Injury Rape,[7],84%
same,Percent Phytotoxic Injury Pinto Bean,[8],63%
same,Percent Phytotoxic Injury Cucumber,[9],77%
same,average injury to the two soybean varieties,[10]; glyphosate 0.2 kg/ha,about 18%
same,average injury to the two soybean varieties,[10]; glyphosate 0.4 kg/ha,~46%
same,average injury to the two soybean varieties,[10]; glyphosate 0.8 kg/ha,~70%
